# Data reported in patent US20040037843A1, “Inducing cellular immune responses to prostate cancer antigens using peptide and nucleic acid compositions” (priority 2003, published 2004).
# System: .221A2.1 peptide-loaded target cells and cells expressing endogenous antigen
# Experiment: Primary in vitro CTL induction with peptide-pulsed DC, CTL lytic activity by 51Cr release
# Type: cell-based, human
# Settings: immunogenicity, positive/tested; for A2 native: CTL recognition of native (wild-type) target; for A2 peptide: CTL recognition of the peptide
# Procedure: Testing was performed using the following methodology:
# Cells that express an antigen of interest, or transfectants comprising the gene encoding the antigen of interest, can be used as target cells to test the ability of peptide-specific CTLs to recognize endogenous antigen.
# The monocytes are purified by plating 10×10^6 PBMC/well in a 6-well plate. After 2 hours at 37° C., the non-adherent cells are removed by gently shaking the plates and aspirating the supernatants. The wells are washed a total of three times with 3 ml RPMI to remove most of the non-adherent and loosely adherent cells. Three ml of complete medium containing 50 ng/ml of GM-CSF and 1,000 U/ml of IL-4 are then added to each well. TNFα is added to the DCs on day 6 at 75 ng/ml and the cells are used for CTL induction cultures on day 7.
# Induction of CTL with DC and Peptide: CD8+ T-cells are isolated by positive selection with Dynal imnmunomagnetic beads (Dynabeads® M-450) and the detacha-bead® reagent. Typically about 200-250×10^6 PBMC are processed to obtain 24×10^6 CD8^+T-cells (enough for a 48-well plate culture). Briefly, the PBMCs are thawed in RPMI with 30 μg/ml DNAse, washed once with PBS containing 1% human AB serum and resuspended in PBS/1% AB serum at a concentration of 20×10^6 cells/ml. The magnetic beads are washed 3 times with PBS/AB serum, added to the cells (140 μl beads/20×10^6 cells) and incubated for 1 hour at 4° C. with continuous mixing. The beads and cells are washed 4× with PBS/AB serum to remove the nonadherent cells and resuspended at 100×10^6 cells/ml (based on the original cell number) in PBS/AB serum containing 100 μl/ml detacha-bead® reagent and 30 μg/ml DNAse. The mixture is incubated for 1 hour at room temperature with continuous mixing. The beads are washed again with PBS/AB/DNAse to collect the CD8+ T-cells. The DC are collected and centrifuged at 1300 rpm for 5-7 minutes, washed once with PBS with 1% BSA, counted and pulsed with 40 μg/ml of peptide at a cell concentration of 1-2×10^6/ml in the presence of 3 μg/ml β2-microglobulin for 4 hours at 20° C. The DC are then irradiated (4,200 rads), washed 1 time with medium and counted again.
# Setting up induction cultures: 0.25 ml cytokine-generated DC (@1×10^5 cells/ml) are co-cultured with 0.25 ml of CD8+ T-cells (@2×10^6 cell/ml) in each well of a 48-well plate in the presence of 10 ng/ml of IL-7. Recombinant human IL10 is added the next day at a final concentration of 10 ng/ml and rhuman IL2 is added 48 hours later at 10 IU/mL.
# Restimulation of the induction cultures with peptide-pulsed adherent cells: Seven and fourteen days after the primary induction the cells are restimulated with peptide-pulsed adherent cells. The PBMCS are thawed and washed twice with RPMI and DNAse. The cells are resuspended at 5×10^6 cells/ml and irradiated at ˜4200 rads. The PBMCs are plated at 2×10^6 in 0.5 ml complete medium per well and incubated for 2 hours at 37° C. The plates are washed twice with RPMI by tapping the plate gently to remove the nonadherent cells and the adherent cells pulsed with 10 μg/ml of peptide in the presence of 3 μg/ml β2 microglobulin in 0.25 ml RPMI/5% AB per well for 2 hours at 37° C. Peptide solution from each well is aspirated and the wells are washed once with RPMI. Most of the media is aspirated from the induction cultures (CD8+ cells) and brought to 0.5 ml with fresh media. The cells are then transferred to the wells containing the peptide-pulsed adherent cells. Twenty four hours later rhuman IL10 is added at a final concentration of 10 ng/ml and rhuman IL2 is added the next day and again 2-3 days later at 50 IU/ml (Tsai et al., Critical Reviews in Immunology 18(1-2):65-75, 1998). Seven days later the cultures are assayed for CTL activity in a ^51Cr release assay. In some experiments the cultures are assayed for peptide-specific recognition in the in situ IFNγ ELISA at the time of the second restimulation followed by assay of endogenous recognition 7 days later. […]
Compound,A2 native,A2 peptide
CC(C)C[C@H](NC(=O)[C@@H](N)C(C)C)C(=O)N[C@H](C(=O)N[C@@H](Cc1c[nH]cn1)C(=O)N1CCC[C@H]1C(=O)N[C@@H](CCC(N)=O)C(=O)N[C@@H](Cc1c[nH]c2ccccc12)C(=O)N[C@H](C(=O)N[C@@H](CC(C)C)C(=O)N[C@H](C(=O)N[C@H](C(=O)O)C(C)C)[C@@H](C)O)C(C)C)C(C)C [Peptide 1419.11],2/2,2/2
CC(C)C[C@H](NC(=O)[C@H](C)N)C(=O)N[C@@H](Cc1ccccc1)C(=O)N1CCC[C@H]1C(=O)N1CCC[C@H]1C(=O)N[C@@H](CCC(=O)O)C(=O)NCC(=O)N[C@H](C(=O)N[C@@H](CO)C(=O)N[C@H](C(=O)O)C(C)C)C(C)C [Peptide 1419.61],1/3,1/3
CC(C)C[C@H](NC(=O)[C@H](CC(=O)O)NC(=O)[C@@H](NC(=O)[C@H](CS)NC(=O)[C@H](CCC(N)=O)NC(=O)[C@H](CC(C)C)NC(=O)[C@@H](N)CCCCN)C(C)C)C(=O)N[C@@H](Cc1c[nH]cn1)C(=O)N[C@H](C(=O)O)C(C)C [Peptide 990.01],–,1/2
CSCC[C@H](N)C(=O)N[C@@H](CC(C)C)C(=O)N[C@@H](CC(C)C)C(=O)N[C@@H](CCCNC(=N)N)C(=O)N[C@@H](CC(C)C)C(=O)N[C@@H](CO)C(=O)N[C@@H](CCC(=O)O)C(=O)N1CCC[C@H]1C(=O)N[C@H](C(=O)O)C(C)C [Peptide 1389.10],1/3,3/3
CC(C)C[C@H](NC(=O)[C@H](CCCCN)NC(=O)[C@H](CCCCN)NC(=O)[C@@H]1CCCN1C(=O)[C@@H](NC(=O)[C@H](CC(C)C)NC(=O)[C@@H](N)Cc1ccccc1)[C@@H](C)O)C(=O)N[C@@H](CCC(N)=O)C(=O)N[C@@H](CS)C(=O)N[C@H](C(=O)O)C(C)C [Peptide 1098.02],–,3/4
CC(C)C[C@H](NC(=O)[C@H](CO)NC(=O)[C@H](CCCNC(=N)N)NC(=O)[C@@H]1CCCN1C(=O)[C@H](CCCNC(=N)N)NC(=O)[C@H](CC(C)C)NC(=O)[C@@H](N)Cc1ccccc1)C(=O)N[C@@H](CCC(N)=O)C(=O)N[C@@H](CS)C(=O)N[C@H](C(=O)O)C(C)C [Peptide 1419.07],–,1/3
CC[C@H](C)[C@H](NC(=O)[C@@H]1CCCN1C(=O)[C@H](Cc1c[nH]cn1)NC(=O)[C@@H](NC(=O)[C@@H]1CCCN1C(=O)[C@@H](NC(=O)[C@H](CO)NC(=O)[C@@H]1CCCN1C(=O)[C@H](CC(C)C)NC(=O)CN)[C@@H](C)CC)C(C)C)C(=O)O [Peptide 1129.10],–,2/4
CC(C)C[C@H](NC(=O)[C@H](C)N)C(=O)NCC(=O)N[C@H](C(=O)N[C@H](C(=O)N[C@@H](CS)C(=O)N[C@@H](Cc1ccc(O)cc1)C(=O)N[C@@H](C)C(=O)O)[C@@H](C)O)[C@@H](C)O [Peptide 1419.01],–,1/2
CC[C@H](C)[C@H](NC(=O)[C@H](CC(=O)O)NC(=O)[C@H](Cc1ccccc1)NC(=O)[C@H](CC(C)C)NC(=O)[C@H](C)N)C(=O)N[C@@H](CCC(=O)O)C(=O)N[C@@H](CO)C(=O)N[C@@H](CCCCN)C(=O)N[C@H](C(=O)O)C(C)C [Peptide 1129.08],–,2/2
CC[C@H](C)[C@H](NC(=O)[C@H](Cc1ccc(O)cc1)NC(=O)[C@H](C)NC(=O)[C@@H](NC(=O)CNC(=O)[C@H](CCCNC(=N)N)NC(=O)[C@H](CCC(=O)O)NC(=O)[C@H](CCC(N)=O)NC(=O)[C@H](CC(C)C)NC(=O)[C@@H](N)CC(C)C)C(C)C)C(=O)O [Peptide 1129.01],–,3/3
CC[C@H](C)[C@H](N)C(=O)N[C@@H](CCSC)C(=O)N[C@@H](Cc1ccc(O)cc1)C(=O)N[C@@H](CO)C(=O)N[C@@H](C)C(=O)N[C@@H](Cc1c[nH]cn1)C(=O)N[C@@H](CC(=O)O)C(=O)N[C@H](C(=O)N[C@H](C(=O)N[C@H](C(=O)O)C(C)C)[C@@H](C)O)[C@@H](C)O [Peptide 1097.05],–,3/3
CC[C@H](C)[C@H](N)C(=O)N[C@@H](CC(C)C)C(=O)N[C@@H](CC(C)C)C(=O)N[C@@H](Cc1c[nH]c2ccccc12)C(=O)N[C@@H](CCC(N)=O)C(=O)N1CCC[C@H]1C(=O)N[C@H](C(=O)N1CCC[C@H]1C(=O)N[C@H](C(=O)O)C(C)C)[C@@H](C)CC [Peptide 1044.04],–,5/5
CC(C)C[C@H](NC(=O)[C@H](Cc1c[nH]c2ccccc12)NC(=O)[C@H](Cc1ccccc1)NC(=O)[C@H](Cc1ccccc1)NC(=O)[C@H](CC(C)C)NC(=O)[C@@H](N)CC(C)C)C(=O)N[C@@H](CC(=O)O)C(=O)N[C@@H](CCCNC(=N)N)C(=O)N[C@@H](CO)C(=O)N[C@H](C(=O)O)C(C)C [Peptide 1097.09],–,3/3
CSCC[C@H](NC(=O)[C@H](CC(C)C)NC(=O)[C@H](CCC(N)=O)NC(=O)[C@H](CC(=O)O)NC(=O)[C@H](CC(N)=O)NC(=O)[C@H](CCSC)NC(=O)[C@@H](N)CCSC)C(=O)N[C@@H](Cc1ccccc1)C(=O)N[C@@H](CC(C)C)C(=O)O [Peptide 1126.01],–,2/2
CSCC[C@H](NC(=O)CN)C(=O)N1CCC[C@H]1C(=O)N[C@@H](CCC(=O)O)C(=O)NCC(=O)N[C@@H](CC(=O)O)C(=O)N[C@@H](CC(C)C)C(=O)N[C@H](C(=O)N[C@@H](Cc1ccc(O)cc1)C(=O)N[C@H](C(=O)O)C(C)C)C(C)C [Peptide 1129.04],–,0/1
CC(C)C[C@H](NC(=O)[C@@H]1CCCN1)C(=O)N[C@H](C(=O)N[C@@H](CS)C(=O)N[C@@H](CC(N)=O)C(=O)NCC(=O)N[C@H](C(=O)N[C@@H](CC(C)C)C(=O)N[C@@H](CCC(N)=O)C(=O)NCC(=O)N[C@H](C(=O)O)C(C)C)C(C)C)C(C)C [Peptide 1419.17],2/2,2/2
CC[C@H](C)[C@H](N)C(=O)N[C@H](C(=O)N[C@@H](CC(C)C)C(=O)N[C@@H](Cc1c[nH]c2ccccc12)C(=O)N[C@@H](CCC(N)=O)C(=O)N1CCC[C@H]1C(=O)N[C@H](C(=O)N1CCC[C@H]1C(=O)N[C@H](C(=O)O)C(C)C)[C@@H](C)CC)[C@@H](C)O [Peptide 1418.25],2/3,3/3
CSCC[C@H](NC(=O)[C@H](CC(=O)O)NC(=O)[C@H](CC(N)=O)NC(=O)[C@H](CO)NC(=O)[C@H](CC(C)C)NC(=O)[C@H](CC(C)C)NC(=O)[C@H](Cc1c[nH]cn1)NC(=O)[C@H](CC(C)C)NC(=O)[C@@H](N)CO)C(=O)N[C@@H](CS)C(=O)N[C@@H](C)C(=O)O [Peptide 1419.14],–,1/3
CC(C)C[C@H](NC(=O)[C@H](CCC(=O)O)NC(=O)[C@H](CCCCN)NC(=O)[C@H](C)NC(=O)[C@H](CC(C)C)NC(=O)[C@@H](N)C(C)C)C(=O)N[C@@H](CCCCN)C(=O)N[C@@H](Cc1ccccc1)C(=O)N[C@H](C(=O)O)C(C)C [Peptide 1097.17],–,1/3
